Laboratory results published in US20250382332A1, “NOVEL ALPHA-FACTOR BASED PEPTIDES WITH ANTIFUNGAL ACTIVITY” (INVAIO SCIENCES, INC., priority 2024, published 2025).
Peptide text beside a SMILES is read from it.

Tested on: Botrytis cinerea (B05.10)
Test: Resazurin antifungal assay of 180 alpha-factor peptide variants towards Botrytis (Example 2)
Assay type: cell-based
Design: key to active against Botrytis at 15 μM / active against Botrytis at 10 μM: Peptides that showed greater than 90% inhibition were considered active against Botrytis
Settings: for Inhibition at 10 μM / Inhibition at 20 μM / Inhibition at 50 μM / Inhibition at 100 μM / Inhibition at 15 μM: % inhibition of fungal growth, Botrytis conidia, resazurin; for Inhibition at 10 μM: peptide 10 μM; for Inhibition at 20 μM: peptide 20 μM; for Inhibition at 50 μM: peptide 50 μM; for Inhibition at 100 μM: peptide 100 μM
Procedure, shortened: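 B. cinerea B05.10 conidia (5000/well) were exposed to peptides at 100, 50, 20, 15 and 10 μM final for 24 h at 20° C. Resazurin was then added and fluorescence read at 570/620 nm. Percent growth inhibition was calculated against conidia-only wells, with four technical replicates.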

| Structure (SMILES) | Inhibition at 10 μM | Inhibition at 20 μM | Inhibition at 50 μM | Inhibition at 100 μM | Inhibition at 15 μM (peptide 15 μM) | active against Botrytis at 15 μM (peptide 15 μM) |
| --- | --- | --- | --- | --- | --- | --- |
| CSCC[C@H](NC(=O)[C@H](CO)NC(=O)[C@H](CCC(N)=O)NC(=O)CNC(=O)[C@@H]1CCCN1C(=O)[C@H](CCCCN)NC(=O)[C@H](CC(C)C)NC(=O)[C@H](CCCNC(=N)N)NC(=O)[C@H](CC(C)C)NC(=O)[C@H](Cc1ccc(O)cc1)NC(=O)[C@H](Cc1c[nH]cn1)NC(=O)[C@@H](N)Cc1c[nH]c2ccccc12)C(=O)N[C@@H](Cc1ccc(O)cc1)C(=O)O [compound 70] (H-WHYLRLKPGQSMY-OH; N-terminus and C-terminus assumed) | <90% | <90% | 100% | 100% | – | – |
| CC[C@H](C)[C@H](NC(=O)[C@H](Cc1c[nH]c2ccccc12)NC(=O)[C@H](Cc1c[nH]cn1)NC(=O)[C@@H](N)Cc1c[nH]c2ccccc12)C(=O)N[C@@H](CCC(N)=O)C(=O)N[C@@H](CC(C)C)C(=O)N[C@@H](CCCCN)C(=O)N[C@@H](CCCCN)C(=O)NCC(=O)N[C@@H](CCC(=O)O)C(=O)N1CCC[C@H]1C(=O)N[C@@H](CCSC)C(=O)N[C@@H](Cc1ccc(O)cc1)C(=O)O [compound 71] (H-WHWIQLKKGEPMY-OH; N-terminus and C-terminus assumed) | <90% | <90% | 100% | 100% | – | – |
| CSCC[C@H](NC(=O)[C@@H]1CCCN1C(=O)[C@H](CCC(N)=O)NC(=O)CNC(=O)[C@@H]1CCCN1C(=O)[C@H](CCCCN)NC(=O)[C@H](Cc1ccccc1)NC(=O)[C@H](CCCCN)NC(=O)[C@H](CC(C)C)NC(=O)[C@H](Cc1ccc(O)cc1)NC(=O)[C@H](Cc1c[nH]cn1)NC(=O)[C@@H](N)CCCCN)C(=O)N[C@@H](Cc1ccc(O)cc1)C(=O)O [compound 72] (H-KHYLKFKPGQPMY-OH; N-terminus and C-terminus assumed) | <90% | 100% | 100% | 100% | 98.60% | active |
| CC[C@H](C)[C@H](NC(=O)[C@H](CCCNC(=N)N)NC(=O)[C@H](CC(C)C)NC(=O)[C@H](Cc1c[nH]c2ccccc12)NC(=O)[C@H](CCC(N)=O)NC(=O)[C@@H](N)Cc1c[nH]c2ccccc12)C(=O)N[C@@H](CCCCN)C(=O)N[C@@H](CO)C(=O)NCC(=O)N[C@@H](CCC(N)=O)C(=O)NCC(=O)N[C@@H](CCSC)C(=O)N[C@@H](Cc1ccc(O)cc1)C(=O)O [compound 73] (H-WQWLRIKSGQGMY-OH; N-terminus and C-terminus assumed) | <90% | <90% | 100% | 100% | – | – |
| CSCC[C@H](NC(=O)[C@@H]1CCCN1C(=O)[C@H](CCC(N)=O)NC(=O)CNC(=O)[C@@H]1CCCN1C(=O)[C@H](Cc1c[nH]cn1)NC(=O)[C@H](CC(C)C)NC(=O)[C@H](CCCCN)NC(=O)[C@@H](NC(=O)[C@H](Cc1ccccc1)NC(=O)[C@H](Cc1c[nH]cn1)NC(=O)[C@@H](N)Cc1c[nH]c2ccccc12)C(C)C)C(=O)N[C@@H](Cc1ccc(O)cc1)C(=O)O [compound 74] (H-WHFVKLHPGQPMY-OH; N-terminus and C-terminus assumed) | <90% | <90% | 100% | 100% | – | – |
| CC[C@H](C)[C@H](NC(=O)[C@H](Cc1c[nH]c2ccccc12)NC(=O)[C@H](Cc1c[nH]cn1)NC(=O)[C@@H](N)CCCCN)C(=O)N[C@@H](CCCNC(=N)N)C(=O)N[C@@H](CC(C)C)C(=O)N[C@@H](Cc1c[nH]c2ccccc12)C(=O)N1CCC[C@H]1C(=O)NCC(=O)N[C@@H](CCC(N)=O)C(=O)N1CCC[C@H]1C(=O)N[C@@H](CCSC)C(=O)N[C@@H](Cc1ccc(O)cc1)C(=O)O [compound 75] (H-KHWIRLWPGQPMY-OH; N-terminus and C-terminus assumed) | <90% | 92.02% | 100% | 100% | <90% | – |
| CSCC[C@H](NC(=O)[C@H](CO)NC(=O)[C@H](C)NC(=O)CNC(=O)[C@@H]1CCCN1C(=O)[C@H](CCCCN)NC(=O)[C@H](CC(C)C)NC(=O)[C@H](CCCNC(=N)N)NC(=O)[C@H](CC(C)C)NC(=O)[C@H](Cc1c[nH]c2ccccc12)NC(=O)[C@H](Cc1c[nH]cn1)NC(=O)[C@@H](N)Cc1c[nH]c2ccccc12)C(=O)N[C@@H](Cc1ccc(O)cc1)C(=O)O [compound 76] (H-WHWLRLKPGASMY-OH; N-terminus and C-terminus assumed) | <90% | 97.59% | 100% | 100% | <90% | – |
| CC[C@H](C)[C@H](NC(=O)[C@H](Cc1c[nH]c2ccccc12)NC(=O)[C@H](Cc1c[nH]cn1)NC(=O)[C@@H]1CCCN1)C(=O)N[C@@H](CCCCN)C(=O)N[C@@H](CC(C)C)C(=O)N[C@@H](Cc1c[nH]cn1)C(=O)N[C@H](C(=O)NCC(=O)N[C@@H](CCC(N)=O)C(=O)N1CCC[C@H]1C(=O)N[C@@H](CCSC)C(=O)N[C@@H](Cc1ccc(O)cc1)C(=O)O)[C@@H](C)O [compound 77] (H-PHWIKLHTGQPMY-OH; N-terminus and C-terminus assumed) | <90% | <90% | 100% | 99.74% | – | – |
| CSCC[C@H](NC(=O)[C@@H]1CCCN1C(=O)[C@H](CCC(N)=O)NC(=O)CNC(=O)[C@@H]1CCCN1C(=O)[C@H](CCCCN)NC(=O)[C@H](Cc1ccccc1)NC(=O)[C@H](CC(N)=O)NC(=O)[C@H](CC(C)C)NC(=O)[C@H](Cc1ccccc1)NC(=O)[C@H](Cc1c[nH]cn1)NC(=O)[C@@H](N)CCCCN)C(=O)N[C@@H](Cc1ccc(O)cc1)C(=O)O [compound 78] (H-KHFLNFKPGQPMY-OH; N-terminus and C-terminus assumed) | <90% | <90% | 100% | 100% | – | – |
| CC[C@H](C)[C@H](NC(=O)[C@H](CC(=O)O)NC(=O)[C@H](CCCNC(=N)N)NC(=O)[C@@H](N)Cc1c[nH]c2ccccc12)C(=O)N[C@@H](CCCNC(=N)N)C(=O)N[C@@H](CC(C)C)C(=O)N[C@@H](CCCCN)C(=O)N[C@@H](CCCCN)C(=O)NCC(=O)N[C@@H](CCC(N)=O)C(=O)N1CCC[C@H]1C(=O)N[C@@H](CCSC)C(=O)N[C@@H](Cc1ccc(O)cc1)C(=O)O [compound 79] (H-WRDIRLKKGQPMY-OH; N-terminus and C-terminus assumed) | <90% | <90% | 100% | 100% | – | – |
| CSCC[C@H](NC(=O)[C@@H]1CCCN1C(=O)[C@H](CCC(N)=O)NC(=O)CNC(=O)[C@@H]1CCCN1C(=O)[C@H](CCCCN)NC(=O)[C@H](Cc1ccccc1)NC(=O)[C@H](CCCNC(=N)N)NC(=O)[C@H](CC(C)C)NC(=O)[C@@H](NC(=O)[C@H](Cc1c[nH]cn1)NC(=O)[C@@H](N)CCCCN)[C@@H](C)O)C(=O)N[C@@H](Cc1ccc(O)cc1)C(=O)O [compound 80] (H-KHTLRFKPGQPMY-OH; N-terminus and C-terminus assumed) | <90% | 99.56% | 100% | 100% | <90% | – |
| CC[C@H](C)[C@H](NC(=O)[C@H](Cc1c[nH]c2ccccc12)NC(=O)[C@H](Cc1c[nH]cn1)NC(=O)[C@@H](N)CCCCN)C(=O)N[C@@H](CCCCN)C(=O)N[C@@H](CC(C)C)C(=O)N[C@@H](CCCCN)C(=O)N[C@@H](CC(N)=O)C(=O)NCC(=O)N[C@@H](CCC(N)=O)C(=O)N1CCC[C@H]1C(=O)N[C@@H](CCSC)C(=O)N[C@@H](Cc1ccc(O)cc1)C(=O)O [compound 81] (H-KHWIKLKNGQPMY-OH; N-terminus and C-terminus assumed) | <90% | 99.51% | 100% | 100% | <90% | – |
| CSCC[C@H](NC(=O)[C@@H]1CCCN1C(=O)[C@H](CCC(N)=O)NC(=O)CNC(=O)[C@@H](NC(=O)[C@H](CCCCN)NC(=O)[C@H](CC(C)C)NC(=O)[C@H](CO)NC(=O)CNC(=O)[C@H](Cc1c[nH]c2ccccc12)NC(=O)[C@H](Cc1c[nH]cn1)NC(=O)[C@@H](N)Cc1c[nH]c2ccccc12)C(C)C)C(=O)N[C@@H](Cc1ccc(O)cc1)C(=O)O [compound 82] (H-WHWGSLKVGQPMY-OH; N-terminus and C-terminus assumed) | <90% | <90% | 100% | 100% | – | – |
| CSCC[C@H](NC(=O)[C@@H]1CCCN1C(=O)[C@H](CCC(N)=O)NC(=O)CNC(=O)[C@@H]1CCCN1C(=O)[C@H](CCCCN)NC(=O)[C@H](CC(C)C)NC(=O)[C@H](CCCNC(=N)N)NC(=O)[C@H](CC(C)C)NC(=O)[C@@H](NC(=O)[C@H](Cc1c[nH]cn1)NC(=O)[C@@H](N)CCCCN)[C@@H](C)O)C(=O)N[C@@H](Cc1ccc(O)cc1)C(=O)O [compound 83] (H-KHTLRLKPGQPMY-OH; N-terminus and C-terminus assumed) | <90% | 99.92% | 100% | 100% | <90% | – |
